Measurements reported in patent US10519134B2, “Pyrazole compounds and methods of making and using same” (Lundbeck La Jolla Research Center, Inc., priority 2015, dated 2019).

Assays:
Type in all cases: biochemical
FAAH = biological target: T1, FAAH (Mus musculus, UniProt O08914); test: In vitro competitive activity-based protein profiling (mouse), FAAH gel band; conditions: read-out: FAAH % inh. 1 μM
T1 construct: Proteomes (mouse brain membrane fraction or cell lysates); from tissue; host or cells: mouse brain membrane fraction (or cell lysates)
T1 sequence (O08914 1-579): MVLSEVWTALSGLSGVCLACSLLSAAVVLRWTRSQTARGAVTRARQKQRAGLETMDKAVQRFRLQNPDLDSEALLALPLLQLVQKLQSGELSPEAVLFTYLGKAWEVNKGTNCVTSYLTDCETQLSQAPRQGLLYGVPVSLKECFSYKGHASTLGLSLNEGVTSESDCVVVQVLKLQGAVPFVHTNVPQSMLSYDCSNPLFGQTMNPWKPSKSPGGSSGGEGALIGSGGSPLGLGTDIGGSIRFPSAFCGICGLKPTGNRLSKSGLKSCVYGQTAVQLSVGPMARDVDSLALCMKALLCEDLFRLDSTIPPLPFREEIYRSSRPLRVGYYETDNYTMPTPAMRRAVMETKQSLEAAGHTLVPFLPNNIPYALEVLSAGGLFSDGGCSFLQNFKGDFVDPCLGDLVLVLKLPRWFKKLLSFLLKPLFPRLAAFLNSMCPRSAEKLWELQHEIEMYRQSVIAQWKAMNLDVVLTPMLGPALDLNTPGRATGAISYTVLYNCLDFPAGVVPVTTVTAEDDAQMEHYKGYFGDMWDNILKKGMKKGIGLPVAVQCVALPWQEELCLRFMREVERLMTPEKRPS
How it was run: (§1)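 Gel-based competitive ABPP: proteome 1.0 mg/mL, inhibitor 30 min 37 °C, then FP-Rh or HT-01 probe (stock 50 μM) 30 min 37 °C; SDS quench, SDS-PAGE, in-gel fluorescence of the enzyme band quantified.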

MAGL [1] = biological target: T2, MAGL (Mus musculus, UniProt O35678); test: In vitro competitive activity-based protein profiling (mouse), MAGL gel band; conditions: read-out: MAGL % inh. 1 μM
T2 construct: Proteomes (mouse brain membrane fraction or cell lysates); from tissue; host or cells: mouse brain membrane fraction (or cell lysates)
T2 sequence (O35678 1-303): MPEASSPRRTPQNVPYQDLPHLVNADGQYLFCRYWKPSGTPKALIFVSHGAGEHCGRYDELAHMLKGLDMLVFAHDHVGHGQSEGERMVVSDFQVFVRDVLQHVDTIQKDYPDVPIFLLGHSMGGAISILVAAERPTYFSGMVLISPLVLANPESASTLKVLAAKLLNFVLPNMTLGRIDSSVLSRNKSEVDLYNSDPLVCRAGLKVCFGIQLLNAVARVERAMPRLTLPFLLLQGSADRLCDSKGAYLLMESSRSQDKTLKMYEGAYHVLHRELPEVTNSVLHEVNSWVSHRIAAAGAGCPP
How it was run: as §1

MAGL [2] = biological target: T3, MAGL (Homo sapiens, UniProt Q99685); test: In vitro competitive activity-based protein profiling (human), MAGL gel band
T3 construct: Proteomes (human prefrontal cortex or cell membrane fractions); from tissue; host or cells: human prefrontal cortex (or cell membrane fractions)
T3 sequence (Q99685 1-303): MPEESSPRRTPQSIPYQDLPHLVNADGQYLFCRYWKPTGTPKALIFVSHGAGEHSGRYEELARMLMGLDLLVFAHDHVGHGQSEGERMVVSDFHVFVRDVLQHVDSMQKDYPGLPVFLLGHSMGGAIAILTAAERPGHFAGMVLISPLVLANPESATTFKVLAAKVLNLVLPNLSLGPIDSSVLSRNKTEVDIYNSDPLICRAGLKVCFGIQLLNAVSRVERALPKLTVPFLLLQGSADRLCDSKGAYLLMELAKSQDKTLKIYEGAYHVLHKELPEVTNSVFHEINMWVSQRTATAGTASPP
Description: In Vitro Competitive Activity-Based Protein Profiling (Human).
Proteomes (human prefrontal cortex or cell membrane fractions) (50 μL, 1.0-2.0 mg/mL total protein concentration) were preincubated with varying concentrations of inhibitors at 37° C. After 30 min, FP-Rh or JW912 (1.0 μL, 50 μM in DMSO) was added and the mixture was incubated for another 30 min at room temperature. Reactions were quenched with SDS loading buffer (15 μL—4×) and run on SDS-PAGE. Following gel imaging, serine hydrolase activity was determined by measuring fluorescent intensity of gel bands corresponding to MAGL using ImageJ 1.49k software.

inhibition at 1 µM (FAAH) [%]	inhibition at 1 µM (MAGL [1]) [%]	IC50 (MAGL [2]) [nM]	Compound
0 to 25	≥ 75	≤ 100	CS(=O)(=O)Nc1ccn(C(=O)N2CCN(Cc3ccc(C(F)(F)F)cc3N3CCC(S(C)(=O)=O)CC3)CC2)n1 [Example 209, N-(1-(4-(2-(4-(methylsulfonyl)piperidin-1-yl)-4-(trifluoromethyl)benzyl)piperazine-1-carbonyl)-1H-pyrazol-3-yl) methanesulfonamide]
0 to 25	≥ 75	≤ 100	C#Cc1ccc(CN2CCN(C(=O)n3ccc(NC(C)=O)n3)CC2)cc1 [Example 210, N-(1-(4-(4-ethynylbenzyl)piperazine-1-carbonyl)-1H-pyrazol-3-yl) acetamide]
0 to 25	≥ 75	≤ 100	CS(=O)(=O)Nc1ccn(C(=O)N2CCN(Cc3ccc(C(F)(F)F)cc3-c3nccs3)CC2)n1 [Example 211, N-(1-(4-(2-(thiazol-2-yl)-4-(trifluoromethyl)benzyl)piperazine-1-carbonyl)-1H-pyrazol-3-yl) methanesulfonamide]
0 to 25	≥ 75	100 to 1000	CS(=O)(=O)Nc1ccn(C(=O)N2CCN(Cc3ccc(C(F)(F)F)cc3-c3ccc(C(F)(F)F)nc3)CC2)n1 [Example 212, N-(1-(4-(4-(trifluoromethyl)-2-(6-(trifluoromethyl)pyridin-3-yl)benzyl)piperazine-1-carbonyl)-1H-pyrazol-3-yl) methanesulfonamide]
0 to 25	≥ 75	100 to 1000	CS(=O)(=O)Nc1ccn(C(=O)N2CCN(Cc3ccc(C(F)(F)F)cc3-c3ccn(CC(=O)O)n3)CC2)n1 [Example 213, 2-(3-(2-((4-(3-(methylsulfonamido)-1H-pyrazole-1-carbonyl)piperazin-1-yl)methyl)-5-(trifluoromethyl)phenyl)-1H-pyrazol-1-yl)acetic acid]
0 to 25	≥ 75	100 to 1000	CC(=O)N1CC2CN(c3cc(CN4CCN(C(=O)n5ccc(NS(C)(=O)=O)n5)CC4)ccc3Cl)CC2C1 (stereo not drawn) [Example 215, N-(1-(4-(3-(5-acetylhexahydro-pyrrolo[3,4-c]pyrrol-2(1H)-yl)-4-chlorobenzyl)piperazine-1-carbonyl)-1H-pyrazol-3-yl) methanesulfonamide]
0 to 25	≥ 75	100 to 1000	CC(=O)N1CCC2(CC1)CCN(c1cc(CN3CCN(C(=O)n4ccc(NS(C)(=O)=O)n4)CC3)ccc1Cl)C2 [Example 216, N-(1-(4-(3-(8-acetyl-2,8-diazaspiro[4.5]decan-2-yl)-4-chlorobenzyl)piperazine-1-carbonyl)-1H-pyrazol-3-yl) methanesulfonamide]
0 to 25	≥ 75	≤ 100	CS(=O)(=O)Nc1ccn(C(=O)N2CCN(Cc3ccc(Cl)cc3N3CCC(F)CC3)CC2)n1 [Example 227, N-(1-(4-(4-chloro-2-(4-fluoropiperidin-1-yl)benzyl)piperazine-1-carbonyl)-1H-pyrazol-3-yl) methanesulfonamide]

Compound	inhibition at 1 µM (FAAH) [%]	inhibition at 1 µM (MAGL [1]) [%]	IC50 (MAGL [2]) [nM]
CS(=O)(=O)Nc1ccn(C(=O)N2CCN(Cc3ccc(C(F)(F)F)cc3N3C4CCC3COC4)CC2)n1 [Example 206, N-(1-(4-(2-(3-oxa-8-azabicyclo[3.2.1]octan-8-yl)-4-(trifluoromethyl)benzyl)piperazine-1-carbonyl)-1H-pyrazol-3-yl) methanesulfonamide]	0 to 25	≥ 75	≤ 100
CS(=O)(=O)Nc1ccn(C(=O)N2CCN(Cc3ccc(C(F)(F)F)cc3N3C4CCC3CN(S(C)(=O)=O)C4)CC2)n1 [Example 208, N-(1-(4-(2-(3-(methylsulfonyl)-3,8-diazabicyclo[3.2.1]octan-8-yl)-4-(trifluoromethyl)benzyl)piperazine-1-carbonyl)-1H-pyrazol-3-yl) methanesulfonamide]	0 to 25	≥ 75	≤ 100
